Measurements as given in ChEMBL document CHEMBL5506017, “Brain-Permeable Immunoproteasome-Targeting Macrocyclic Peptide Epoxyketones for Alzheimer's Disease” (J Med Chem, 2024).
Activity calls are given as the source filed them. No cut-off for these calls is given here.

Tests used:
[1] = Drug recovery in human plasma; assay type: ADME, cell-free
[2] = Mutagenicity in Salmonella typhimurium TA98 at 0.01 to 100 uM incubated for 90 mins in presence of liver S9 fraction by AMES test; assay type: toxicity, subcellular; conditions: salmonella enterica subsp. enterica serovar typhimurium, s9, 1.5 h, dose 0.01-100 µM
[3] = Metabolic stability in human liver microsomes assessed as parent compound remaining at 2 uM measured at 60 mins by LC-MS/MS analysis; assay type: ADME, Microsome; conditions: 1 h
[4] = Stability in human plasma; assay type: ADME, cell-free
[5] = AUC (0 to last) in BALB/c mouse at 150 mg/kg, po measured after 15 to 360 mins by LC-MS/MS analysis; assay type: ADME, organism-based; conditions: in vivo, time 15-360 min
[6] = In vivo inhibition of LMP2 activity in BALB/c mouse blood at 40 mg/kg, iv measured after 2 hrs relative to control; assay type: functional
[7] = Mutagenicity in Salmonella typhimurium TA100 at 0.01 to 100 uM incubated for 90 mins in presence of liver S9 fraction by AMES test; assay type: toxicity, subcellular; conditions: salmonella enterica subsp. enterica serovar typhimurium, s9, 1.5 h, dose 0.01-100 µM
[8] = Apparent permeability of the compound across basal to apical side in human Caco-2 cells expressing Pgp/BCRP at 10 uM incubated for 120 mins by LC-MS/MS analysis; assay type: ADME, cell-based; conditions: caco-2, 2 h
[9] = Drug uptake in BALB/c mouse spleen at 40 mg/kg, iv measured after 2 hrs; assay type: ADME, organism-based; conditions: in vivo
[10] = AUC infinity in BALB/c mouse at 150 mg/kg, po measured after 15 to 360 mins by LC-MS/MS analysis; assay type: ADME, organism-based; conditions: in vivo, time 15-360 min
[11] = Toxicity in BALB/c mouse assessed as diarrhea at 100 mg/kg, po; assay type: organism-based; conditions: in vivo
[12] = Efflux ratio of apparent permeability across basolateral to apical side over apical to basolateral side in human Caco-2 cells expressing Pgp/BCRP at 10 uM incubated for 120 mins by LC-MS/MS analysis; assay type: ADME, cell-based; conditions: caco-2, 2 h
[13] = AUC infinity in BALB/c mouse at 40 mg/kg, iv measured upto 1440 mins by LC-MS/MS analysis; assay type: ADME, organism-based; conditions: in vivo, 24 h
[14] = AUC (0 to last) in BALB/c mouse at 40 mg/kg, iv measured upto 1440 mins by LC-MS/MS analysis; assay type: ADME, organism-based; conditions: in vivo, 24 h
[15] = Toxicity in BALB/c mouse assessed as effect on weight loss at 40 mg/kg, iv; assay type: organism-based; conditions: in vivo
[16] = Half life in BALB/c mouse at 40 mg/kg, iv measured upto 1440 mins by LC-MS/MS analysis; assay type: ADME, organism-based; conditions: in vivo, 24 h
[17] = Cytotoxicity against human ARPE-19 cells assessed as reduction in cell viability incubated for 96 hrs by CellTiter 96 Aqueous One Solution Cell Proliferation Assay; assay type: toxicity, cell-based
[18] = Cytotoxicity against human HMC3 cells assessed as reduction in cell viability incubated for 96 hrs by CellTiter 96 Aqueous One Solution Cell Proliferation Assay; assay type: toxicity, cell-based
[19] = Clearance in BALB/c mouse at 40 mg/kg, iv measured upto 1440 mins by LC-MS/MS analysis; assay type: ADME, organism-based; conditions: in vivo, 24 h
[20] = In vivo inhibition of LMP2 activity in BALB/c mouse blood at 150 mg/kg, po measured after 6 hrs post dose relative to control; assay type: functional
ARPE-19 = assay: Cytotoxicity against human ARPE-19 cells assessed as reduction in cell viability at 30 to 100 uM incubated for 96 hrs by CellTiter 96 Aqueous One Solution Cell Proliferation Assay; assay type: toxicity, cell-based; conditions: arpe-19, 96 h, dose 30-100 µM
[21] = In vivo inhibition of LMP2 activity in BALB/c mouse brain at 100 mg/kg, iv measured after 24 hrs relative to control; assay type: functional
[22] = Toxicity in BALB/c mouse assessed as effect on hair loss at 40 mg/kg, iv; assay type: organism-based; conditions: in vivo
[23] = Half life in BALB/c mouse at 150 mg/kg, po measured after 15 to 360 mins by LC-MS/MS analysis; assay type: ADME, organism-based; conditions: in vivo, time 15-360 min
[24] = molecular target: T1, Proteasome subunit beta type-9 (Homo sapiens, UniProt P28065); assay: Inhibition of human LMP2 using Ac-PAL-AMC as substrate incubated for 1 hr by fluorescence based SpectraMax M5e plate reader
T1 sequence (P28065 whole entry): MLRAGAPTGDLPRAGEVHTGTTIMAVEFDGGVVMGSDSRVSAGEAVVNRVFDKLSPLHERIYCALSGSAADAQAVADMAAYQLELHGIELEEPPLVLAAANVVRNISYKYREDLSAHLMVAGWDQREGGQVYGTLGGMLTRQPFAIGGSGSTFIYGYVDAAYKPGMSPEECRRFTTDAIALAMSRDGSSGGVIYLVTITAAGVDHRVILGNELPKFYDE

[25] = Mutagenicity in Salmonella typhimurium TA98 at 0.01 to 100 uM incubated for 90 mins in absence of liver S9 fraction by AMES test; assay type: toxicity; conditions: salmonella enterica subsp. enterica serovar typhimurium, s9, 1.5 h, dose 0.01-100 µM
[26] = Cmax in BALB/c mouse at 40 mg/kg, iv measured upto 1440 mins by LC-MS/MS analysis; assay type: ADME, organism-based; conditions: in vivo, 24 h
[27] = molecular target: T2, Proteasome subunit beta type-9 (Mus musculus) (UniProt P28076); assay: Inhibition of LMP2 in mouse BV-2 cells using Ac-PAL-AMC as substrate at 0.3 to 1 uM measured after 24 hrs by fluorescence based SpectraMax M5e plate reader; assay type: cell-based; conditions: dose 0.3-1 µM
T2 sequence (whole entry): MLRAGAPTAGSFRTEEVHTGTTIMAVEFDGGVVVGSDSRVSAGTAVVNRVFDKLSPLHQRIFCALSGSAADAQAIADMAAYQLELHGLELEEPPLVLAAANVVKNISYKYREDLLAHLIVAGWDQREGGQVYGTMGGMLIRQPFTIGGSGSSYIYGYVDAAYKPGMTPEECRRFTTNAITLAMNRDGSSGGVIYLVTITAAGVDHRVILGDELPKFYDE

[28] = Toxicity in BALB/c mouse assessed as paralysis at 100 mg/kg, po; assay type: organism-based; conditions: in vivo
[29] = C0 in BALB/c mouse at 40 mg/kg, iv measured upto 1440 mins by LC-MS/MS analysis; assay type: ADME, organism-based; conditions: in vivo, 24 h
[30] = Protein binding in human plasma assessed as unbound fraction; assay type: ADME, cell-free
[31] = Tmax in BALB/c mouse at 150 mg/kg, po measured after 15 to 360 mins by LC-MS/MS analysis; assay type: ADME, organism-based; conditions: in vivo, time 15-360 min
[32] = Toxicity in BALB/c mouse assessed as effect on hair loss at 100 mg/kg, po; assay type: organism-based; conditions: in vivo
[33] = Oral bioavailability in BALB/c mouse at 150 mg/kg measured after 15 to 360 mins by LC-MS/MS analysis; assay type: ADME, organism-based; conditions: in vivo, time 15-360 min
[34] = Cmax in BALB/c mouse at 150 mg/kg, po measured after 15 to 360 mins by LC-MS/MS analysis; assay type: ADME, organism-based; conditions: in vivo, time 15-360 min
[35] = Mutagenicity in Salmonella typhimurium TA100 at 0.01 to 100 uM incubated for 90 mins in absence of liver S9 fraction by AMES test; assay type: toxicity; conditions: salmonella enterica subsp. enterica serovar typhimurium, s9, 1.5 h, dose 0.01-100 µM
[36] = Drug uptake in BALB/c mouse kidney at 40 mg/kg, iv measured after 2 hrs; assay type: ADME, organism-based; conditions: in vivo
[37] = Drug uptake in BALB/c mouse brain at 40 mg/kg, iv measured after 2 hrs; assay type: ADME, organism-based; conditions: in vivo

Structure (SMILES): CC(C)C[C@H](NC(=O)[C@@H]1COCCCCCC(=O)N2C[C@H](F)C[C@H]2C(=O)N1)C(=O)[C@@]1(C)CO1
- Drug recovery [1]: 74%
- Activity [2]: Non-Toxic
- Stability [3]: 33%
- Stability [4]: 78%
- AUClast [5]: 3553 ng·h/mL
- inhibition in vivo at 40 mg/kg [6]: 100%
- Activity [7]: Non-Toxic
- Papp [8]: 17.3 10^-6 cm/s
- Drug uptake [9]: Active
- AUC [10]: 3571 ng·h/mL
- Activity [11]: Non-Toxic
- Ratio [12]: 2.62
- AUC [13]: 9689 ng·h/mL
- AUClast [14]: 9689 ng·h/mL
- Activity [15]: Non-Toxic
- t1/2 [16]: 25.2 min
- IC50 at 96 h [17]: > 100 µM
- IC50 at 96 h [18]: > 100 µM
- CL [19]: 70.88 mL/min/kg
- inhibition in vivo at 150 mg/kg [20]: 90%
- Activity (ARPE-19): Non-Toxic
- inhibition in vivo at 100 mg/kg [21]: 65%
- Activity [22]: Non-Toxic
- t1/2 [23]: 47.5 min
- IC50 [24]: 0.087 µM
- Activity [25]: Non-Toxic
- Cmax [26]: 25900 ng/mL
- inhibition [27]: Active
- Activity [28]: Non-Toxic
- C0 [29]: 31987 ng/mL
- Fu [30]: 0.45%
- Tmax [31]: 20 min
- Activity [32]: Non-Toxic
- F [33]: 9.8%
- Cmax [34]: 3630 ng/mL
- Activity [35]: Non-Toxic
- Drug uptake [36]: Active
- Drug uptake [37]: Active
